Values quoted from earlier work as cited in patent US20110257198A1, “PIPERIDINE DERIVATIVES USEFUL AS OREXIN ANTAGONISTS” (priority 2008, published 2011).
Ends that are not written are not given here.

What was measured:
rat = details: central administration at the onset of the normal sleep period (Hagan et al 1999)
freely-feeding rats = details: central administration, 4 hour time period
rats [1] = details: rats (White et al 2005)
rats [2] = details: rats (Nair et al 2008)

Compound	effect on arousal (rat)	increase of food intake over control rats receiving vehicle (freely-feeding rats)	effect on hedonic eating (rats [1])	effect on high-fat pellet self-administration (rats [2])
orexin-A: polypeptide ligand for the orexin-1 receptor; an agonist of the orexin receptors (QPLPDCCRQKTCSCRLYELLHGAGNHAAGILTL; ends and bridges not checked; cysteine pairing not given here; UniProt O43612 34-66, looked up)	dose-related increase in arousal	approximately four-fold	–	–
Cc1nc2ccc(NC(=O)Nc3ccnc4cccnc34)cc2o1 [SB334867]	–	–	potently reduced hedonic eating	attenuated high-fat pellet self-administration
